Blank lines part the entries; values can stand above or below the compound they belong to.
What was measured:
[1] = Inhibition of 5-FAM-BH3 peptide binding to N-terminal His8-tagged human MCL-1 (209 to 327 residues)/mouse MCL-1 (152 to 189 residues) expressed in Escherichia coli BL21 (DE3) by fluorescence polarization assay
[2] = molecular target: Bcl-2-like protein 1 (Homo sapiens) (UniProt Q07817); assay: Inhibition of 5-FAM-BH3 peptide binding to human N-terminal GST-tagged BCL-XL (1 to 212 residues) expressed in Escherichia coli BL21 (DE3) at 100 uM by fluorescence polarization assay relative to control
[3] = Inhibition of 5-FAM-BH3 peptide binding to human N-terminal GST-tagged BCL-2 (1 to 34 residues)/BCL-XL (29 to 44 residues)/BCL-2 isoform 2 (92 to 207 residues) expressed in Escherichia coli BL21 (DE3) by fluorescence polarization assay
[4] = Antiproliferative activity against human KM3 cells incubated for 72 hrs by MTT assay; type: functional, cell-based; conditions: KM3, 72 h
[5] = test system: HepG2; assay: Antiproliferative activity against human HepG2 cells incubated for 72 hrs by MTT assay; type: functional, cell-based; conditions: HepG2, 72 h
[6] = test system: RPMI-8226; assay: Antiproliferative activity against human RPMI-8226 cells incubated for 72 hrs by MTT assay; type: functional, cell-based; conditions: RPMI-8226, 72 h
[7] = test system: Jurkat; assay: Antiproliferative activity against human Jurkat cells incubated for 72 hrs by MTT assay; type: functional, cell-based
[8] = test system: MOLT-4; assay: Antiproliferative activity against human MOLT-4 cells incubated for 72 hrs by MTT assay; type: functional, cell-based; conditions: MOLT-4, 72 h
[9] = test system: PC-3; assay: Antiproliferative activity against human PC-3 cells incubated for 72 hrs by MTT assay; type: functional, cell-based; conditions: PC-3, 72 h
[10] = test system: NCI-H1299; assay: Antiproliferative activity against human NCI-H1299 cells incubated for 72 hrs by MTT assay; type: functional, cell-based; conditions: NCI-H1299, 72 h
[11] = species on record: Homo sapiens; assay: Inhibition of 5-FAM-BH3 peptide binding to human N-terminal GST-tagged BCL-2 (1 to 34 residues)/BCL-XL (29 to 44 residues)/BCL-2 isoform 2 (92 to 207 residues) expressed in Escherichia coli BL21 (DE3) at 100 uM by fluorescence polarization assay relative to control
[12] = test system: KM3; assay: Induction of apoptosis in human KM3 cells measured after 48 hrs by Annexin V-FITC/propidium iodide staining based flow cytometry; type: functional, cell-based
[13] = test system: HepG2; assay: Induction of apoptosis in human HepG2 cells measured after 48 hrs by Annexin V-FITC/propidium iodide staining based flow cytometry; type: functional, cell-based
[14] = Induction of apoptosis in human KM3 cells assessed as viable cells at 10 uM measured after 48 hrs by Annexin V-FITC/propidium iodide staining based flow cytometry (reference value: 96.24%); type: functional; conditions: read-out: Activity
[15] = Induction of apoptosis in human KM3 cells assessed as early apoptotic cells at 10 uM measured after 48 hrs by Annexin V-FITC/propidium iodide staining based flow cytometry (reference value: 2.18%); type: functional
[16] = Induction of apoptosis in human KM3 cells assessed as late apoptotic cells at 10 uM measured after 48 hrs by Annexin V-FITC/propidium iodide staining based flow cytometry (reference value: 1.15%); type: functional
[17] = Induction of apoptosis in human KM3 cells assessed as necrotic cells at 10 uM measured after 48 hrs by Annexin V-FITC/propidium iodide staining based flow cytometry (reference value: 0.42%); type: functional
[18] = Induction of apoptosis in human KM3 cells assessed as viable cells at 20 uM measured after 48 hrs by Annexin V-FITC/propidium iodide staining based flow cytometry (reference value: 96.24%); type: functional; conditions: read-out: Activity
[19] = Induction of apoptosis in human KM3 cells assessed as early apoptotic cells at 20 uM measured after 48 hrs by Annexin V-FITC/propidium iodide staining based flow cytometry (reference value: 2.18%); type: functional
[20] = Induction of apoptosis in human KM3 cells assessed as late apoptotic cells at 20 uM measured after 48 hrs by Annexin V-FITC/propidium iodide staining based flow cytometry (reference value: 1.15%); type: functional
[21] = Induction of apoptosis in human KM3 cells assessed as necrotic cells at 20 uM measured after 48 hrs by Annexin V-FITC/propidium iodide staining based flow cytometry (reference value: 0.42%); type: functional
[22] = test system: HepG2; assay: Induction of apoptosis in human HepG2 cells assessed as viable cells at 10 uM measured after 48 hrs by Annexin V-FITC/propidium iodide staining based flow cytometry (reference value: 96.84%); type: functional; conditions: read-out: Activity
[23] = test system: HepG2; assay: Induction of apoptosis in human HepG2 cells assessed as early apoptotic cells at 10 uM measured after 48 hrs by Annexin V-FITC/propidium iodide staining based flow cytometry (reference value: 0.71%); type: functional
[24] = test system: HepG2; assay: Induction of apoptosis in human HepG2 cells assessed as late apoptotic cells at 10 uM measured after 48 hrs by Annexin V-FITC/propidium iodide staining based flow cytometry (reference value: 1.93%); type: functional
[25] = test system: HepG2; assay: Induction of apoptosis in human HepG2 cells assessed as necrotic cells at 10 uM measured after 48 hrs by Annexin V-FITC/propidium iodide staining based flow cytometry (reference value: 0.52%); type: functional
[26] = test system: HepG2; assay: Induction of apoptosis in human HepG2 cells assessed as viable cells at 20 uM measured after 48 hrs by Annexin V-FITC/propidium iodide staining based flow cytometry (reference value: 96.84%); type: functional; conditions: read-out: Activity
[27] = test system: HepG2; assay: Induction of apoptosis in human HepG2 cells assessed as early apoptotic cells at 20 uM measured after 48 hrs by Annexin V-FITC/propidium iodide staining based flow cytometry (reference value: 0.71%); type: functional
[28] = test system: HepG2; assay: Induction of apoptosis in human HepG2 cells assessed as late apoptotic cells at 20 uM measured after 48 hrs by Annexin V-FITC/propidium iodide staining based flow cytometry (reference value: 1.93%); type: functional
[29] = test system: HepG2; assay: Induction of apoptosis in human HepG2 cells assessed as necrotic cells at 20 uM measured after 48 hrs by Annexin V-FITC/propidium iodide staining based flow cytometry (reference value: 0.52%); type: functional

Sequence of Bcl-2-like protein 1 (Homo sapiens) (Q07817 whole entry, the tested form may be a part, canonical isoform): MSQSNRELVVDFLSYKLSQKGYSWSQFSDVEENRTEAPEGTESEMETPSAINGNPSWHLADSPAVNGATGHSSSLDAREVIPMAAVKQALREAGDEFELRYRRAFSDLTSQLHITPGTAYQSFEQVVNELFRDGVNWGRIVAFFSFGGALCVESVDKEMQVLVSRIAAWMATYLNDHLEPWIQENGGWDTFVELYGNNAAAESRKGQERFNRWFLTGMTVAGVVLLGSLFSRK

SMILES: Cc1ccc(CC(=O)N[C@@H](Cc2ccc(OCCOc3cccc4ccccc34)cc2)C(=O)NS(=O)(=O)c2ccc(Cl)c([N+](=O)[O-])c2)cc1
Ki [1]: 590 nM

SMILES: Cc1ccc(CC(=O)N[C@@H](Cc2cc(I)c(OCCOc3cccc4ccccc34)c(I)c2)C(=O)NS(=O)(=O)c2ccc(Cl)c([N+](=O)[O-])c2)cc1
Ki [1]: 570 nM

SMILES: CC(C)(C)OC(=O)N[C@@H](Cc1ccc(OCCOc2cccc3ccccc23)cc1)C(=O)NS(=O)(=O)c1ccc(Cl)c([N+](=O)[O-])c1
Ki [1]: 5000 nM

SMILES: Cc1ccc(CC(=O)N[C@@H](Cc2cc(Br)c(OCCOc3cccc4ccccc34)c(Br)c2)C(=O)NS(=O)(=O)c2ccc(Cl)c([N+](=O)[O-])c2)cc1
Ki [1]: 970 nM

SMILES: Cc1ccc(CC(=O)N[C@@H](Cc2ccc(OCCOc3cccc4ccccc34)cc2)C(=O)NS(=O)(=O)c2ccc(NCCc3ccccc3)c([N+](=O)[O-])c2)cc1
Ki [1]: 470 nM

SMILES: CC(C)(C)OC(=O)N[C@@H](Cc1cc(I)c(OCCOc2cccc3ccccc23)c(I)c1)C(=O)NS(=O)(=O)c1ccc(Cl)c([N+](=O)[O-])c1
Ki [1]: 1400 nM

SMILES: Cc1cc(OCCOc2ccc(C[C@H](NC(=O)OC(C)(C)C)C(=O)NS(=O)(=O)c3ccc(NCCOc4ccccc4)c([N+](=O)[O-])c3)cc2)cc(C)c1Cl
Ki [1]: 670 nM

SMILES: Cc1ccc(CC(=O)N[C@@H](Cc2ccc(OCCOc3cc(C)c(Cl)c(C)c3)cc2)C(=O)NS(=O)(=O)c2ccc(Cl)c([N+](=O)[O-])c2)cc1
Ki [1]: 480 nM

SMILES: CC(C)(C)OC(=O)N[C@@H](Cc1ccc(OCCOc2ccc(Cl)cc2)cc1)C(=O)NS(=O)(=O)c1ccc(Cl)c([N+](=O)[O-])c1
Ki [1]: 4800 nM

SMILES: Cc1cc(OCCOc2ccc(C[C@H](NC(=O)OC(C)(C)C)C(=O)NS(=O)(=O)c3ccc(NCCCc4ccccc4)c([N+](=O)[O-])c3)cc2)cc(C)c1Cl
Ki [1]: 450 nM

SMILES: Cc1cc(OCCOc2ccc(C[C@H](NC(=O)OC(C)(C)C)C(=O)NS(=O)(=O)c3ccc(Cl)c([N+](=O)[O-])c3)cc2)cc(C)c1Cl
Ki [1]: 700 nM

SMILES: Cc1ccc(CC(=O)N[C@@H](Cc2ccc(OCCOc3cc(C)c(Cl)c(C)c3)cc2)C(=O)NS(=O)(=O)c2ccc(NCCOc3ccccc3)c([N+](=O)[O-])c2)cc1
Ki [1]: 340 nM

SMILES: O=C(Cc1ccc(Cl)cc1)N[C@@H](Cc1ccc(OCCOc2cccc3ccccc23)cc1)C(=O)NS(=O)(=O)c1ccc(Cl)c([N+](=O)[O-])c1
Ki [1]: 510 nM

SMILES: CC(C)(C)OC(=O)N[C@@H](Cc1ccc(OCCOc2cccc3ccccc23)cc1)C(=O)NS(=O)(=O)c1ccc(NCCc2ccccc2)c([N+](=O)[O-])c1
Ki [1]: 420 nM

SMILES: Cc1ccc(CC(=O)N[C@@H](Cc2cc(Cl)c(OCCOc3cccc4ccccc34)c(Cl)c2)C(=O)NS(=O)(=O)c2ccc(Cl)c([N+](=O)[O-])c2)cc1
Ki [1]: 720 nM

SMILES: Cc1ccc(CC(=O)N[C@@H](Cc2ccc(OCCOc3cccc4ccccc34)cc2)C(=O)NS(=O)(=O)c2ccc(NCc3ccccc3)c([N+](=O)[O-])c2)cc1
Ki [1]: 760 nM

SMILES: CC(C)(C)OC(=O)N[C@@H](Cc1ccc(OCCOc2ccccc2)cc1)C(=O)NS(=O)(=O)c1ccc(Cl)c([N+](=O)[O-])c1
Ki [1]: > 15000 nM

SMILES: COc1ccc(CC(=O)N[C@@H](Cc2ccc(OCCOc3cccc4ccccc34)cc2)C(=O)NS(=O)(=O)c2ccc(NCCCc3ccccc3)c([N+](=O)[O-])c2)cc1
Ki [1]: 500 nM

SMILES: CC(C)(C)OC(=O)N[C@@H](Cc1cc(Cl)c(OCCOc2cccc3ccccc23)c(Cl)c1)C(=O)NS(=O)(=O)c1ccc(Cl)c([N+](=O)[O-])c1
Ki [1]: 1000 nM

inhibition [2]: > 50%
IC50 [5]: 11000 nM
IC50 [6]: 8610 nM
IC50 [7]: 21200 nM
IC50 [8]: 19700 nM
IC50 [9]: 9710 nM
IC50 [10]: 22900 nM
SMILES: Cc1cc(OCCCCOc2ccc(C[C@H](NC(=O)OC(C)(C)C)C(=O)NS(=O)(=O)c3ccc(NCCCc4ccccc4)c([N+](=O)[O-])c3)cc2)cc(C)c1Cl
Ki [1]: 260 nM
Ki [3]: 1200 nM
IC50 [4]: 9700 nM

SMILES: Cc1ccc(CC(=O)N[C@@H](Cc2ccc(OCCOc3cccc4ccccc34)cc2)C(=O)NS(=O)(=O)c2ccc(NCCCc3ccccc3)c([N+](=O)[O-])c2)cc1
Ki [1]: 440 nM

SMILES: Cc1cc(OCCCCOc2ccc(C[C@H](NC(=O)OC(C)(C)C)C(=O)NS(=O)(=O)c3ccc(Cl)c([N+](=O)[O-])c3)cc2)cc(C)c1Cl
Ki [1]: 710 nM

SMILES: Cc1ccc(C(=O)N[C@@H](Cc2ccc(OCCOc3cccc4ccccc34)cc2)C(=O)NS(=O)(=O)c2ccc(Cl)c([N+](=O)[O-])c2)cc1
Ki [1]: 710 nM

SMILES: Cc1ccc(CC(=O)N[C@@H](Cc2ccc(OCCOc3ccccc3)cc2)C(=O)NS(=O)(=O)c2ccc(Cl)c([N+](=O)[O-])c2)cc1
Ki [1]: 8500 nM

inhibition [2]: > 50%
inhibition [11]: > 50%
IC50 [5]: 12700 nM
IC50 [6]: 7350 nM
IC50 [7]: 17200 nM
IC50 [8]: 18000 nM
IC50 [9]: 18200 nM
IC50 [10]: 21500 nM
SMILES: Cc1ccc(CC(=O)N[C@@H](Cc2cc(I)c(OCCOc3cccc4ccccc34)c(I)c2)C(=O)NS(=O)(=O)c2ccc(NCCCc3ccccc3)c([N+](=O)[O-])c2)cc1
Ki [1]: 210 nM
IC50 [4]: 8260 nM

inhibition [2]: > 50%
IC50 [5]: 11700 nM
IC50 [6]: 7610 nM
IC50 [7]: 13000 nM
IC50 [8]: 13900 nM
IC50 [9]: 14300 nM
IC50 [10]: 12900 nM
SMILES: Cc1cc(OCCOc2ccc(C[C@H](NC(=O)c3ccccc3)C(=O)NS(=O)(=O)c3ccc(NCCCc4ccccc4)c([N+](=O)[O-])c3)cc2)cc(C)c1Cl
Ki [1]: 270 nM
Ki [3]: 1700 nM
IC50 [4]: 7460 nM
Activity [12]: Dose-dependent effect
Activity [13]: Dose-dependent effect
viability at 10 µM [14]: 83%
Activity [15]: 10.52%
Activity [16]: 5.52%
Activity [17]: 1.01%
viability at 20 µM [18]: 11.9%
Activity [19]: 17.71%
Activity [20]: 68.68%
Activity [21]: 1.73%
viability at 10 µM [22]: 82.3%
Activity [23]: 0.87%
Activity [24]: 11.72%
Activity [25]: 5.13%
viability at 20 µM [26]: 18.5%
Activity [27]: 2.25%
Activity [28]: 75.13%
Activity [29]: 4.13%

SMILES: Cc1ccc(CC(=O)N[C@@H](Cc2ccc(OCCOc3ccc(Cl)cc3)cc2)C(=O)NS(=O)(=O)c2ccc(Cl)c([N+](=O)[O-])c2)cc1
Ki [1]: 1600 nM

SMILES: Cc1cc(OCCCOc2ccc(C[C@H](NC(=O)OC(C)(C)C)C(=O)NS(=O)(=O)c3ccc(Cl)c([N+](=O)[O-])c3)cc2)cc(C)c1Cl
Ki [1]: 660 nM

SMILES: CC(C)(C)OC(=O)N[C@@H](Cc1ccc(OCCOc2cccc3ccccc23)cc1)C(=O)NS(=O)(=O)c1ccc(NCCCc2ccccc2)c([N+](=O)[O-])c1
Ki [1]: 1100 nM

Source: ChEMBL document CHEMBL4765272, “Design, synthesis and biological evaluation of tyrosine derivatives as Mcl-1 inhibitors” (Eur J Med Chem, 2020)
